Experimental data as given in US10322118B2, “Compounds and methods for inhibiting Cif virulence factor” (priority 2012, dated 2019).
Several values for one entry are separate records, joined by “and”; a condition that tells them apart may be missing. Identical values can stand only once.

Experiments:
Cif [1] = target: T1, Cif (Pseudomonas aeruginosa (strain UCBPP-PA14), UniProt A0A0H2ZD27); assay: Fluorescent-based Cif inhibitory assay (CMNGC)
Description: Cyano (6-methoxynaphthalen-2-yl) methyl glycidyl carbonate (CMNGC) was used as a fluorescent reporter substrate.
Reported IC50 values are the average of triplicates with at least two data points above and at least two below the IC50.

Cif [2] = target: T1, Cif; assay: Radioactivity epoxide hydrolase assay with tritium-labeled cis-stilbene oxide (CSO); type: biochemical; design: concentration or dose not given beside the values; conditions: for Inhibition (%): radioactivity assay, CSO substrate, initial screen and retest (Table 8)
Cif [3] = target: T1, Cif; assay: Primary high throughput screen with fluorogenic substrate CMNGC; type: biochemical;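 further: fluorescence of 200 µL reactions in 96-well plates read on a plate reader, inhibitor at tenfold molar excess over Cif enzyme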
Protocol: All high throughput screening assays were performed using 96-well plates, a 200 μL reaction volume, and a fluorescent plate reader. […] The fluorescent signal was measured after allowing the enzyme reaction to proceed for 60 minutes.
A library of 1600 FDA-approved compounds was screened for Cif inhibitory activity.
The screen was performed with only a 10-fold stoichiometric excess of inhibitor over Cif enzyme.

Cif [4] = target: T1, Cif; assay: Secondary screen (sextuplicate) with fluorogenic substrate CMNGC; type: biochemical;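 further: purified enzyme assay in 96-well plates, 200 µL volume, fluorescence recorded each minute across a 60 min reaction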
Protocol: All high throughput screening assays were performed using 96-well plates, a 200 μL reaction volume, and a fluorescent plate reader. […] The fluorescent signal was measured after allowing the enzyme reaction to proceed for 60 minutes. The secondary screen was performed using the same conditions as the primary screen, except that fluorescent readings were taken every minute for the 60-minute reaction.
Subsequently, the filtered primary hits were retested to validate the observed inhibitory effect.

[5] = primary screen, test compounds at 10 μM, 1 μM Cif, 25 μM CMNGC, 60 minutes
[6] = read-out: % Inhibition, Mean ± SD
[7] = read-out: % Inhibition, plate 1
[8] = read-out: % Inhibition, plate 2
[9] = read-out: % Inhibition, plate 3
[10] = read-out: % Inhibition, plate 4
[11] = read-out: % Inhibition, plate 5
[12] = read-out: % Inhibition, plate 6

T1 sequence (A0A0H2ZD27 25-319 limits assumed): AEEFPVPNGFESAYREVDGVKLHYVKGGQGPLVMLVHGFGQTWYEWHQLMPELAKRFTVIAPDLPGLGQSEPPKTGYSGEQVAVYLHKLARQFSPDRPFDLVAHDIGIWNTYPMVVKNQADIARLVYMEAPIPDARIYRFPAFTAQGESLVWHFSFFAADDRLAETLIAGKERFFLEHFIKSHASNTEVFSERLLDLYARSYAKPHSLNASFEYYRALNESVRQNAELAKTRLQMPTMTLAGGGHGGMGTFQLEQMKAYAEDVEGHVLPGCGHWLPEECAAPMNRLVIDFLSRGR

**Q.** Which IC50 (Cif [1]) does the source give for `NC(Cc1cc(I)c(Oc2cc(I)c(O)c(I)c2)c(I)c1)C(=O)O` (centres unmarked) [Entry 6] here?
**A.** > 100 µM

**Q.** For `O=C(NC1CCC(Oc2ccc(C(=O)O)cc2)CC1)NC12CC3CC(CC(C3)C1)C2` (centres unmarked) [Entry 12], which “Inhibition (%)” value (Cif [2]) is on record?
**A.** 14%

**Q.** `COC(=O)c1ccc(NC(=O)NC23CC4CC(CC(C4)C2)C3)cc1O` [Entry 13] was tested. Which “Inhibition (%)” value (Cif [2]) did it give?
**A.** 18%

**Q.** Which “Inhibition (%)” value (Cif [2]) does the source give for `CC(=O)N1CCC(NC(=O)NC2CCCCCC2)CC1` [Entry 14] here?
**A.** 6%

**Q.** How did the “Inhibition (%)” value (Cif [2]) turn out when `O=C(Nc1ccc(OC(F)(F)F)cc1)NC1CCC(Oc2ccc(C(=O)O)cc2)CC1` (centres unmarked) [Entry 15] was run?
**A.** 17%

**Q.** `CS(=O)(=O)N1CCC(NC(=O)Nc2ccc(OC(F)(F)F)cc2)CC1` [Entry 16] was tested. Which “Inhibition (%)” value (Cif [2]) did it give?
**A.** 14%

**Q.** Which “Inhibition (%)” value (Cif [2]) does the source give for `O=C(Nc1ccc(Cl)cc1)Nc1ccc(Cl)cc1` [Entry 17] here?
**A.** 7%

**Q.** How did the “Inhibition (%)” value (Cif [2]) turn out when `O=C(Nc1ccc(Cl)c(Cl)c1)Nc1ccc(Cl)c(Cl)c1` [Entry 18, N,N′-di-(3,4-dichlorophenyl) urea] was run?
**A.** 25.5%

**Q.** And the “inhibition of Cif enzyme activity” value (Cif [2]; secondary screen of radioactivity assay, P=0.004)?
**A.** 25%

**Q.** What about the “% I, Positive Control Inhibitor, Average” value (Cif [3]; 10 μM DCPU positive control, average of 20 plates) of the same compound?
**A.** 20%

**Q.** And the “% I (percent of the total enzyme activity inhibited), Positive Control Inhibitor” value (Cif [3]; 10 μM DCPU positive control, per plate of primary screen, listed as Positive Control Inhibitor)?
**A.** 15.2% and 30.0%

**Q.** How did the “% Inhibition” value (Cif [3]; [5]) turn out when `CC(=O)[C@H]1CC[C@H]2[C@@H]3CC=C4C[C@@H](OC(=O)CCC(=O)O)CC[C@]4(C)[C@H]3CC[C@]12C` [Pregnenolone succinate] was run?
**A.** 34%

**Q.** What about the “% Inhibition, Mean ± SD” value (Cif [4]; secondary screen, 10 μM, mean of six plates) of the same compound?
**A.** 12 ± 4%

**Q.** What about the “% Inhibition, plate 1” value (Cif [4]; secondary screen, 10 μM, plate number 1) of the same compound?
**A.** 6%

**Q.** And the “% Inhibition, plate 2” value (Cif [4]; secondary screen, 10 μM, plate number 2)?
**A.** 12%

**Q.** And the “% Inhibition, plate 3” value (Cif [4]; secondary screen, 10 μM, plate number 3)?
**A.** 8%

**Q.** What about the “% Inhibition, plate 4” value (Cif [4]; secondary screen, 10 μM, plate number 4) of the same compound?
**A.** 13%

**Q.** And the “% Inhibition, plate 5” value (Cif [4]; secondary screen, 10 μM, plate number 5)?
**A.** 17%

**Q.** And the “% Inhibition, plate 6” value (Cif [4]; secondary screen, 10 μM, plate number 6)?
**A.** 15%

**Q.** Which inhibition at 10 µM (Cif [3]; [5]) does the source give for `C=CC1=C(C)c2cc3[nH]c(cc4nc(cc5[nH]c(cc1n2)c(C)c5CCC(=O)O)C(CCC(=O)O)=C4C)c(C)c3C=C` [Protoporphyrin ix] here?
**A.** 46%

**Q.** What about the inhibition at 10 µM (Cif [4]; [6]) of the same compound?
**A.** 20 ± 7%

**Q.** And the inhibition at 10 µM (Cif [4]; [7])?
**A.** 12%

**Q.** What about the inhibition at 10 µM (Cif [4]; [8]) of the same compound?
**A.** 16%

**Q.** What about the inhibition at 10 µM (Cif [4]; [9]) of the same compound?
**A.** 21%

**Q.** What about the inhibition at 10 µM (Cif [4]; [10]) of the same compound?
**A.** 18%

**Q.** And the inhibition at 10 µM (Cif [4]; [11])?
**A.** 28%

**Q.** What about the inhibition at 10 µM (Cif [4]; [12]) of the same compound?
**A.** 29%

**Q.** `N#C[C@@H]1C[C@@H]2C[C@@H]2N1C(=O)[C@@H](N)C12CC3CC(CC(O)(C3)C1)C2` [Saxagliptin] was tested. Which inhibition at 10 µM (Cif [3]; [5]) did it give?
**A.** 35%

**Q.** And the inhibition at 10 µM (Cif [4]; [6])?
**A.** 5 ± 4%

**Q.** And the inhibition at 10 µM (Cif [4]; [7])?
**A.** 5%

**Q.** What about the inhibition at 10 µM (Cif [4]; [8]) of the same compound?
**A.** 0%

**Q.** What about the inhibition at 10 µM (Cif [4]; [9]) of the same compound?
**A.** 6%

**Q.** And the inhibition at 10 µM (Cif [4]; [10])?
**A.** 6%

**Q.** And the inhibition at 10 µM (Cif [4]; [11])?
**A.** 11%

**Q.** What about the inhibition at 10 µM (Cif [4]; [12]) of the same compound?
**A.** 3%
